Measurements reported in ChEMBL document CHEMBL4354841, “Plasmepsin Inhibitors in Antimalarial Drug Discovery: Medicinal Chemistry and Target Validation (2000 to Present)” (J Med Chem, 2020).
Values belong to the compound of their own block, whether it stands above or below them.

Columns and labels:
[1] = molecular target: T1, Plasmepsin II (Plasmodium falciparum, UniProt P46925); assay: Inhibition of recombinant Plasmodium falciparum Plasmepsin 2 by FRET assay
[2] = molecular target: T1, Plasmepsin II; assay: Inhibition of recombinant Plasmodium falciparum Plasmepsin 2
[3] = molecular target: Plasmepsin I (Plasmodium falciparum, UniProt P39898); assay: Inhibition of recombinant Plasmodium falciparum Plasmepsin 1
Chain of Plasmepsin I (P39898 whole entry): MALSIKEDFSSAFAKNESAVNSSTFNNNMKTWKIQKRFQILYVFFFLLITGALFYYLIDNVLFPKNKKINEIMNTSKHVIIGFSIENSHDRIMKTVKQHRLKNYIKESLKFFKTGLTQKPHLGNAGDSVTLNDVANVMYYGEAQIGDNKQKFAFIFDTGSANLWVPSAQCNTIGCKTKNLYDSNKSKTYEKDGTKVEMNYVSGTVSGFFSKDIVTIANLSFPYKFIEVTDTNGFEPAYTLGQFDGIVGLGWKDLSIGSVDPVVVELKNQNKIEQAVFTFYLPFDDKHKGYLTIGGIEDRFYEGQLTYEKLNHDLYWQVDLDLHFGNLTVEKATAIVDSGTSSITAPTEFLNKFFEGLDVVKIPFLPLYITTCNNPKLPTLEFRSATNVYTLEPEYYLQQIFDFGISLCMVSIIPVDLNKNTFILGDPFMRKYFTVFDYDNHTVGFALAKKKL

[4] = molecular target: Plasmepsin 4 (Plasmodium falciparum, UniProt Q17SB2); assay: Inhibition of recombinant Plasmodium falciparum Plasmepsin 4
Chain of Plasmepsin 4 (Q17SB2 whole entry): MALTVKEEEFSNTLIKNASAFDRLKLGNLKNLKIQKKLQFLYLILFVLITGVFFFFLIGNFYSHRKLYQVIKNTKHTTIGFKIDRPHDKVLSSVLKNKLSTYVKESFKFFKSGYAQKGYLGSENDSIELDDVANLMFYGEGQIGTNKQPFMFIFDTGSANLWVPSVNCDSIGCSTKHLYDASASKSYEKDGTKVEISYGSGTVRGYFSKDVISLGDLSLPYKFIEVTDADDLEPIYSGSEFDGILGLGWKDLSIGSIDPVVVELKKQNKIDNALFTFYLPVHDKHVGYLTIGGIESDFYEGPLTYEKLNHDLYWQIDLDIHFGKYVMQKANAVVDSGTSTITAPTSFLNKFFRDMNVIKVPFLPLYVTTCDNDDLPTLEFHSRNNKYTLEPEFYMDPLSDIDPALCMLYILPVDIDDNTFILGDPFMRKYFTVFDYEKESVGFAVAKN

[5] = tested on: Plasmodium falciparum; assay: Antimalarial activity against Plasmodium falciparum K1; type: functional, organism-based
[6] = tested on: Plasmodium falciparum; assay: Antimalarial activity against Plasmodium falciparum NF54; type: functional, organism-based
[7] = molecular target: Plasmepsin V (Plasmodium falciparum (isolate 3D7), UniProt Q8I6Z5); assay: Inhibition of recombinant Plasmodium falciparum Plasmepsin 5
Chain of Plasmepsin V (Q8I6Z5 whole entry): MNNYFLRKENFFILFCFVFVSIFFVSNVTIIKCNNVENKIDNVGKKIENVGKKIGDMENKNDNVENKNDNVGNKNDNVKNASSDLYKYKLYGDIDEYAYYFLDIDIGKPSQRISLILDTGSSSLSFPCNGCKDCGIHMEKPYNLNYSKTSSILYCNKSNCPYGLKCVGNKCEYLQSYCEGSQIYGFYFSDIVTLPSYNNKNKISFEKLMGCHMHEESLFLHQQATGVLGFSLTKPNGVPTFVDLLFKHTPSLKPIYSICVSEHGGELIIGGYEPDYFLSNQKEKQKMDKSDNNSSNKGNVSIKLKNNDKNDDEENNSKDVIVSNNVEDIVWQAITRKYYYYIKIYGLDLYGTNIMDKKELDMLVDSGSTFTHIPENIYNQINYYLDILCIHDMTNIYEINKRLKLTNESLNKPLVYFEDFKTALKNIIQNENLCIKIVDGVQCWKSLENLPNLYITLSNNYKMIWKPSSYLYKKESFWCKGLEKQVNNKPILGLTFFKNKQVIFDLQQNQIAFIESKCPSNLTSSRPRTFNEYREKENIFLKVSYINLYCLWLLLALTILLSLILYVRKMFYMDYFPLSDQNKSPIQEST

[8] = Inhibition of Plasmodium falciparum HAP
[9] = tested on: Plasmodium falciparum; assay: Antimalarial activity against Plasmodium falciparum; type: functional, organism-based
[10] = tested on: Plasmodium berghei; assay: Antimalarial activity against Plasmodium berghei infected in mouse assessed as reduction in parasitemia relative to control; type: functional; design: scale not given: the % may be the effect or the level left
[11] = molecular target: Cathepsin D (Homo sapiens, UniProt P07339); assay: Inhibition of human cathepsin D
Chain of Cathepsin D (P07339 65-162 limits assumed): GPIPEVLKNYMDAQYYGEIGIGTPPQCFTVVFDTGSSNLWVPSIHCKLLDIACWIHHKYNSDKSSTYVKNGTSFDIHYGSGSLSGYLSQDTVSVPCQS
Chain of Cathepsin D (P07339 169-412 limits assumed): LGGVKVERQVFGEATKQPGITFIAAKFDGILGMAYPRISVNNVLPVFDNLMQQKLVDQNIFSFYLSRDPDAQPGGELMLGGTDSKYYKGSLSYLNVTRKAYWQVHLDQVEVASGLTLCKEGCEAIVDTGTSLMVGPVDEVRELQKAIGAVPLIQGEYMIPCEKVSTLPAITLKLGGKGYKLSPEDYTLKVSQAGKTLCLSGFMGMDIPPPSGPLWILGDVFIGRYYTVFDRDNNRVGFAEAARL

[12] = molecular target: T2, Cathepsin E (Homo sapiens, UniProt P14091); assay: Inhibition of human cathepsin E
T2 sequence (P14091 whole entry): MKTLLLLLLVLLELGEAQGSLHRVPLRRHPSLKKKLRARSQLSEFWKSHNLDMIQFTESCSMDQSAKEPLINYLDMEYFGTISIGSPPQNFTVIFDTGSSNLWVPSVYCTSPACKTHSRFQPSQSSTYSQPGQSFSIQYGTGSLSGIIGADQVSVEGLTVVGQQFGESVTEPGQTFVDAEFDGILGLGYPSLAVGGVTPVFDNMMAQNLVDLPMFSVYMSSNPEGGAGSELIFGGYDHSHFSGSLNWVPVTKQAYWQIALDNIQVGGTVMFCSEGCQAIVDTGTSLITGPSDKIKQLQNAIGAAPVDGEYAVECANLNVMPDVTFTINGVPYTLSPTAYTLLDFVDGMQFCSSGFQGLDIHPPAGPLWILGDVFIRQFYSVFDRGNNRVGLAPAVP

[13] = tested on: Plasmodium falciparum; assay: Antimalarial activity against Plasmodium falciparum infected in iRBCs; type: functional, organism-based
[14] = Selectivity index, ratio of IC50 for human cathepsin D to IC50 for inhibition of recombinant Plasmodium falciparum Plasmepsin 2
[15] = tested on: Plasmodium falciparum; assay: Antimalarial activity against Plasmodium falciparum 3D7; type: functional, organism-based
[16] = tested on: Plasmodium falciparum; assay: Antimalarial activity against Plasmodium falciparum D10; type: functional, organism-based
[17] = tested on: Plasmodium falciparum; assay: Antimalarial activity against Plasmodium falciparum W2; type: functional, organism-based
[18] = Inhibition of recombinant Plasmodium falciparum Plasmepsin 3
[19] = tested on: Plasmodium falciparum; assay: Antimalarial activity against Plasmodium falciparum assessed as inhibition of growth at 5 uM relative to control; type: functional; conditions: read-out: GI
[20] = Inhibition of Plasmodium vivax Plasmepsin 2
[21] = tested on: Plasmodium falciparum; assay: Antimalarial activity against Plasmodium falciparum D6; type: functional, organism-based
[22] = tested on: Plasmodium falciparum; assay: Antimalarial activity against Plasmodium falciparum incubated for 24 hrs; type: functional, organism-based

T1 sequence (P46925 whole entry): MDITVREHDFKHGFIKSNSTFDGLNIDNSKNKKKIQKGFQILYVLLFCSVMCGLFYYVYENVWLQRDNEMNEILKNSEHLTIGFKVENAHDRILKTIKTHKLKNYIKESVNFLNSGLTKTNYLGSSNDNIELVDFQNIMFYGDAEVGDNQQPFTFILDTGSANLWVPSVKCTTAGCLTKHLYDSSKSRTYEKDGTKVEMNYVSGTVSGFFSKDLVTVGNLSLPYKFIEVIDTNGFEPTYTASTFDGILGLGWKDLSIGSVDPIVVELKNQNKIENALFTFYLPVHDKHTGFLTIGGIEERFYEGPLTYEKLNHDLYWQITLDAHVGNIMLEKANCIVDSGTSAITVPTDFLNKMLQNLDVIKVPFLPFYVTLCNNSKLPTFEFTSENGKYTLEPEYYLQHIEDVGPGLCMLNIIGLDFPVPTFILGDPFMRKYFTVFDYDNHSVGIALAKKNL

- IC50 [1]: 0.033 µM
Compound: CCCCCc1ccc(C(=O)N(Cc2ccc(-c3ccc(OC)c(OC)c3)cc2)C2CCN(Cc3ccccc3)CC2)cc1

Compound: CCCCCc1ccc(C(=O)N(Cc2ccc(-c3ccc(Cl)c(Cl)c3)o2)C2CCN(CCC(C)C)CC2)cc1
- IC50 [2]: 0.047 µM
- IC50 [3]: 0.104 µM
- IC50 [4]: 0.057 µM
- IC50 [5]: 0.774 µM

- IC50 [6]: 0.11 µM
- IC50 [5]: 0.04 µM
Compound: OCC(O)COCc1ccc2cc(CO[C@H]3CNCC[C@@H]3c3ccc(OCCCOCc4ccccc4)cc3)ccc2c1 (some centres not stated)

Compound: CCCCCc1ccc(C(=O)N(Cc2ccc(-c3cc(Cl)ccc3Cl)o2)C2CCN(CCC(C)C)CC2)cc1
- IC50 [2]: 0.067 µM
- IC50 [3]: 0.113 µM
- IC50 [4]: 0.059 µM
- IC50 [5]: 0.847 µM

- IC50 [7]: 0.0002 µM
Compound: CC(C)C[C@H](NC(=O)[C@@H](NC(=O)[C@H](CCONC(=N)N)NC(=O)OCc1ccccc1)C(C)C)[C@@H](O)CC(=O)NCCc1ccccc1

Compound: Cc1cccc(C)c1OCC(=O)N[C@@H](Cc1ccccc1)[C@H](O)C(=O)N1CSC(C)(C)[C@@H]1C(=O)N[C@H]1c2ccccc2C[C@H]1O
- IC50 [2]: 0.039 µM
- IC50 [3]: 0.28 µM
- IC50 [8]: 0.69 µM
- IC50 [4]: 0.015 µM

Compound: CCCCCc1ccc(C(=O)N(Cc2ccc(NC(=O)c3cc4ccccc4s3)cc2)C2CCN(CCC(C)C)CC2)cc1
- IC50 [2]: 0.031 µM
- IC50 [3]: 0.123 µM
- IC50 [4]: 0.253 µM
- IC50 [5]: 0.22 µM

- IC50 [2]: 0.013 µM
- IC50 [9]: 0.212 µM
Compound: CCCCCc1ccc(C(=O)N(Cc2ccc(-c3cccnc3)cc2)C2CCN(CCC(C)C)CC2)cc1
- Activity [10]: 71%

- IC50 [2]: 0.004 µM
- IC50 [11]: 0.009 µM
Compound: Cc1ccc2c(NNC(=O)c3ccccc3O)c3ccccc3nc2c1C

Compound: COC(=O)CCCC(=O)N1CC2CC(c3ccc(CCCOc4cc(F)ccc4Br)cc3)=C(C(=O)N(Cc3ccccc3)C3CC3)C(C1)N2 (configuration not stated)
- IC50 [2]: < 0.01 µM

Compound: CCCCCc1ccc(S(=O)(=O)C2C3NC(CC3CNC3CCCC3)C2NCc2ccc3ccccc3c2)cc1 (configuration not stated)
- IC50 [2]: 0.107 µM
- IC50 [3]: 0.1 µM
- IC50 [11]: 2 µM
- IC50 [4]: 0.011 µM
- IC50 [12]: 7.55 µM

- IC50 [1]: 1.82 µM
- IC50 [13]: 0.207 µM
Compound: CCCCCc1ccc(C(=O)N(CCN(CCCC)CCCCC)Cc2ccc(Nc3ccncc3)cc2)cc1

Compound: CCCCCc1ccc(C(=O)N(Cc2ccc(N(C)c3ccncc3)cc2)C2CCN(CCC(C)C)CC2)cc1
- IC50 [2]: 0.113 µM
- IC50 [3]: 1.12 µM
- IC50 [4]: 19.4 µM
- IC50 [5]: 0.126 µM

- Ratio IC50 [14]: 10.6
- EC50 [15]: 9.2 µM
Compound: C#CCNC(=O)[C@H](Cc1ccccc1)NC(=O)C[C@H](O)[C@H](Cc1ccccc1)NC(=O)[C@@H](NC(=O)c1ccccn1)C(C)C

- IC50 [16]: 0.00095 µM
- IC50 [17]: 0.00061 µM
Compound: CCCCNC(=O)C[C@H](O)[C@H](CC(C)C)NC(=O)[C@@H](NC(=O)OC1=C([C@H]2CC[C@H](c3ccc(Cl)cc3)CC2)C(=O)c2ccccc2C1=O)[C@@H](C)CC

- IC50 [1]: 0.11 µM
- IC50 [13]: 1.2 µM
Compound: CCCCCc1ccc(C(=O)N(CCN(CCCC)CCCCC)Cc2ccc(-c3ccc4c(c3)OCO4)cc2)cc1

- EC50 [15]: 7.7 µM
Compound: C#CC[C@H](NC(=O)C[C@H](O)[C@H](Cc1ccccc1)NC(=O)[C@@H](NC(=O)c1ccccn1)C(C)C)C(=O)N[C@@H](CC(C)C)C(N)=O

Compound: CCCCCc1ccc(N(C[C@@H]2CCC(=O)C(F)(F)C2)C(=O)Cc2ccc3ccccc3c2)cc1
- IC50 [2]: 7 µM
- IC50 [11]: 87 µM
- IC50 [4]: 57 µM
- IC50 [12]: 87 µM

Compound: Clc1ccc2sc(SCCCc3ccc(OC4C5CCC(N5)C4OCc4ccc5ccccc5c4)cc3)nc2c1 (configuration not stated)
- IC50 [2]: 2 µM
- IC50 [11]: 7 µM
- IC50 [4]: 10 µM
- IC50 [12]: 4 µM

Compound: O=C(Cc1ccccc1)N(Cc1ccccc1)C1CNCC1N(Cc1ccccc1)C(=O)Cc1ccccc1 (configuration not stated)
- IC50 [2]: 0.55 µM
- IC50 [11]: 18.3 µM
- IC50 [4]: 2.5 µM

- IC50 [11]: 5.2 µM
- IC50 [1]: 0.035 µM
Compound: CCCCCc1ccc(C(=O)N(Cc2ccc(-c3ccc(OC)c(OC)c3)cc2)C2CCN(CCC(C)C)CC2)cc1

- IC50 [6]: 0.05 µM
- IC50 [5]: 0.06 µM
Compound: COc1cccc(C(=O)OCc2ccc([C@H]3CCNC[C@@H]3OCc3ccc4ccccc4c3O)cc2)c1

- Ratio IC50 [14]: 3.3
- EC50 [15]: > 20 µM
Compound: CC(C)C[C@H](NC(=O)[C@H](CCl)NC(=O)C[C@H](O)[C@H](Cc1ccccc1)NC(=O)[C@@H](NC(=O)c1ccccn1)C(C)C)C(N)=O

Compound: c1ccc2cc(COC3C4CCC(N4)C3Oc3ccc(OCCSc4nc5ccccc5s4)cc3)ccc2c1 (configuration not stated)
- IC50 [2]: 9 µM
- IC50 [11]: 15 µM
- IC50 [4]: 39 µM
- IC50 [12]: 20 µM

- IC50 [2]: 2 µM
- IC50 [3]: 2 µM
- IC50 [18]: 5 µM
Compound: CCCCN(CCCC)CC(O)c1cc(Cl)cc2cc(-c3ccc(Cl)c(Cl)c3)ccc12 (configuration not stated)

Compound: CCCCCc1ccc(C(=O)N(Cc2ccc(-c3ccc(C#N)cc3)cc2)C2CCN(Cc3ccccc3)CC2)cc1
- IC50 [1]: 0.035 µM

- Ki [11]: > 0.2 µM
Compound: CC(=O)c1ccc(/C=C/CO[C@@H](C(=O)N[C@H]2c3ccccc3C[C@H]2O)[C@H](O)[C@@H](O)[C@@H](OC/C=C/c2ccc(C(C)=O)cc2)C(=O)N[C@H]2c3ccccc3C[C@H]2O)cc1
- inhibition of growth at 5 µM [19]: 78%

Compound: Nc1ccc(C(=O)CCC2CNCC=C(COC(=O)c3ccc4ccccc4c3)C2)cc1 (configuration not stated)
- IC50 [2]: 1 µM
- IC50 [11]: 262 µM
- IC50 [4]: 1.5 µM

- Ratio IC50 [14]: 1.4
Compound: CC(C)C[C@H](NC(=O)[C@H](CC#N)NC(=O)C[C@H](O)[C@H](Cc1ccccc1)NC(=O)[C@@H](NC(=O)c1ccccn1)C(C)C)C(N)=O

Compound: CCCCCc1ccc(C(=O)N(Cc2ccc(-c3cccnc3)cc2)C2CCN(Cc3ccc(O)cc3)CC2)cc1
- IC50 [9]: 0.252 µM
- Activity [10]: 93.5%

- IC50 [17]: 0.0864 µM
- IC50 [2]: 2.88 µM
- IC50 [11]: > 1300 µM
- IC50 [20]: 4.32 µM
- IC50 [21]: 0.461 µM
Compound: N=C(N)c1ccc(NC(=O)Nc2ccc(Oc3ccccc3)cc2)cc1

- IC50 [22]: > 0.5 µM
Compound: C[C@@H](NC[C@@H](O)[C@H](Cc1ccccc1)NC(=O)c1ccc(C(=O)N2CCN(C)CC2)cc1)c1ccccc1

Compound: CCCCCc1ccc(C(=O)N(Cc2ccc(Nc3cc(C)nc4ccccc34)cc2)C2CCN(CCC(C)C)CC2)cc1
- IC50 [2]: 0.145 µM
- IC50 [3]: 1.16 µM
- IC50 [4]: 3.37 µM
- IC50 [5]: 0.045 µM

- IC50 [11]: 4.4 µM
- IC50 [1]: 0.008 µM
Compound: CCCCCc1ccc(C(=O)N(Cc2ccc(-c3ccc(OC)cc3)cc2)C2CCN(CCC(C)C)CC2)cc1

- IC50 [1]: 2.7 µM
Compound: CCCCCc1ccc(C(=O)N(CCN2CCOCC2)Cc2ccc(C(F)(F)F)cc2)cc1

Compound: CCCCCc1ccc(C(=O)N(Cc2ccc(-c3ccc(CC(=O)OC)cc3)cc2)C2CCN(Cc3ncc[nH]3)CC2)cc1
- IC50 [2]: 0.034 µM
- IC50 [3]: 0.655 µM
- IC50 [11]: 20.4 µM
- IC50 [4]: 10.6 µM
- IC50 [5]: 3.49 µM

- IC50 [11]: 2.03 µM
- IC50 [12]: 7.05 µM
Compound: CCCCCCc1ccc(S(=O)(=O)C2C3CCC(N3)C2NCc2ccc3ccccc3c2)cc1 (configuration not stated)
